Laboratory results from article PMC8273893 (Journal of Medicinal Chemistry, 2021).

Tests used:
[1] = Parallel artificial membrane permeability assay; type: in vitro ADME; details: 500 μM in donor, 20 h
Plasma stability = type: in vitro ADME; details: 5 μM, 50% human plasma in PBS, 1 h, 37 °C

SMILES	PAMPA (% flux) [1] [% flux]	plasma stability (% remaining) (Plasma stability)
O=C(O)c1ccc(OCc2c(-c3c(Cl)cccc3C(F)(F)F)noc2-c2cc[nH]c2)cc1 [Compound 3, 4-((3-(2-Chloro-6-(trifluoromethyl)phenyl)-5-(1H-pyrrol-3-yl)isoxazol-4-yl)methoxy) Benzoic Acid]	40.9	74.2
O=C(O)c1ccc(/C=C/c2c(-c3c(Cl)cccc3C(F)(F)F)noc2-c2cc[nH]c2)cc1 [Compound 6, (E)-4-(2-(3-(2-Chloro-6-(trifluoromethyl)phenyl)-5-(1H-pyrrol-3-yl)isoxazol-4-yl)vinyl) Benzoic Acid]	40.3	59.5
O=C(O)c1ccc(OCc2c(-c3c(Cl)cccc3C(F)(F)F)noc2-c2ccc[nH]2)cc1 [Compound 10, 4-((3-(2-Chloro-6-(trifluoromethyl)phenyl)-5-(1H-pyrrol-2-yl)isoxazol-4-yl)methoxy) Benzoic Acid]	50.5	89.5
O=C(O)c1ccc(OCc2c(-c3c(Cl)cccc3C(F)(F)F)noc2-c2cn[nH]c2)cc1 [Compound 11, 4-((3-(2-Chloro-6-(trifluoromethyl)phenyl)-5-(1H-pyrazol-4-yl)isoxazol-4-yl)methoxy) Benzoic Acid]	23.0	100
O=C(O)c1ccc(-c2nn(C(=O)c3c(Cl)cccc3C(F)(F)F)c3ccccc23)cc1 [Compound 1, reference compound]	29.7	95.5
O=C(O)c1ccc(OCc2c(-c3c(Cl)cccc3C(F)(F)F)noc2-c2cc[nH]c2)cc1F [Compound 9, 4-((3-(2-Chloro-6-(trifluoromethyl)phenyl)-5-(1H-pyrrol-3-yl)isoxazol-4-yl)methoxy)-2-fluorobenzoic Acid]	37.3	97.1
O=C(O)c1ccc(NCc2c(-c3c(Cl)cccc3C(F)(F)F)noc2-c2cc[nH]c2)cc1 [Compound 2, 4-(((3-(2-Chloro-6-(trifluoromethyl)phenyl)-5-(1H-pyrrol-3-yl)isoxazol-4-yl)methyl)amino) Benzoic Acid]	36.1	79.1
